# In article PMC6030159 (Scientific Reports, 2018):
# Tests used:
# MYC bHLHZip = biological target: T1, MYC bHLHZip (Homo sapiens, UniProt P01106); assay: MST direct binding to MYC
# T1 construct: 6xHis (N); made in house; host or cells: E. coli BL21 (DE3), pET28a; purified in denaturing conditions
# Procedure: To determine whether MYCMI-6 binds directly to MYC (or MAX), MST and SPR were applied. The bHLHZip domains of MYC or MAX, respectively (Suppl. Fig. S1C), were titrated and mixed with 3 μM of MYCMI-6.
# MST was carried out on a Monolith NT.115 with blue/green filters, kindly provided by Luca Jovine, Karolinska Institutet Huddinge, according to manufacturer’s protocol (NanoTemper). MYCbHLHZip, MAXbHLHZip, BSA and BCL-XL recombinant proteins and compounds were diluted and titrated in PBS supplemented with 0.05% Triton-X-114 or 0.05% Tween-20. Titration of molecules was carried out in 16 PCR tubes into which a fixed concentration of fluorescent molecule was added. The mixture was applied to capillaries (standard treated, NanoTemper), and scanned in the Monolith NT.115 to measure initial fluorescence of molecule. MST was induced and fluorescence was measured during 40 seconds. Double measurements were carried out (MST power of 20% and 40%, or 40% and 60%) for each sample. Delta fluorescence or relative fluorescence of fluorescent molecule normalized to control vehicle was plotted against titrated molecule concentration. The protein labeling kit GREEN-NHS (NanoTemper) was used to label primary amines of proteins according to manufacture’s protocol.
# [1] = system: T2, bovine serum albumin (BSA); assay: MST binding to BSA; settings: BSA titrated
# T2 construct: purchased NanoTemper (included in the MST kit)
# Description: Data are shown as mean ± standard deviation of 5 biological repeats.
# [2] = system: MYCN-non-amplified neuroblastoma cells (SK-N-F1, SK-N-AS, SK-N-RA); assay: Resazurin growth assay, MYCN-non-amplified neuroblastoma cell lines; format: cell-based
# Description: HEK293A, MCF7, MDA-MB231, SK-N-F1, SK-N-RA, SK-N-AS, COS-7, HeLa, BJ cells, and Rat1 fibroblasts TGR-1 (wt), HO15.19 (MYC knockout) and HOmyc3 (MYC reconstituted HO15.19) were maintained in DMEM. The neuroblastoma cell lines Kelly, IMR-32 and SK-N-DZ, and the Burkitt’s lymphoma cell lines Mutu, Daudi and ST486 were kept in RPMI. SK-N-BE(2) cells were maintained in a 1:1 mixture of EMEM and F12 media, supplemented with 1% non-essential amino acid solution (NEAA) and 0.5% Glutamine. U2OS-MYC-ER cell lines were cultured in phenol-red free DMEM and treated with 100 nM 4-hydroxytamoxifen (HOT) (Sigma-Aldrich) to activate MYC-ER. IMR-90 was maintained in MEM. […]
# Cell proliferation assays. Cell growth and viability was estimated in triplicates with WST-1 (Roche) or Resazurin sodium salt (Sigma-Aldrich) assays in medium at 37°C and 5% CO 2 for 2 hours after which absorbance or fluorescence, respectively, was measured with an Omega Fluostar (BMG Labtech) in a 96 well plate format. […] Images were taken in the green (FITC) and blue (DAPI) channels using a fluorescence microscope (ImageXpress Micro, Molecular Devices). […] After 16 days, the colonies were stained with 100 µg/ml MTT (Sigma) overnight and colonies were counted.
# Immunohistochemistry. […] For quantification, areas with positive TUNEL and Ki67 staining were measured using Image J software. […]
# [3] = system: HOmyc3 (MYC reconstituted HO15.19) Rat1 fibroblasts; assay: WST-1 growth assay, HOmyc3 (MYC reconstituted) Rat1 fibroblasts; format: cell-based, rat
# Procedure: Cell proliferation assays. Cell growth and viability was estimated in triplicates with WST-1
# (Roche) or Resazurin sodium salt (Sigma-Aldrich) assays in medium at 37°C and 5% CO 2 for
# 2 hours after which absorbance or fluorescence, respectively, was measured with an Omega
# Fluostar (BMG Labtech) in a 96 well plate format. […]
# 0.7% agarose. […]
# T1 sequence (P01106 367-447 limits assumed): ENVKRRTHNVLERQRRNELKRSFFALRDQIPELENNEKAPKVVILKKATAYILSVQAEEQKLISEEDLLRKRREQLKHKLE
smiles,measurement,setting,value
CCOc1ccc2nc3cc(/N=N/c4ccc(N)nc4N)ccc3c(N)c2c1 [MYCMI-6],binding to MYC bHLHZip (MST),"MYC bHLHZip; 3 μM MYCMI-6, changes at 1–15 μM of MYC",binding of MYCMI-6 to MYC
same,concentration showing relative changes in thermophoresis of labeled MYC (reverse MST),"MYC bHLHZip; labeled MYC approximately 200 nM, MYCMI-6 titrated",above 100 nM
same,binding to BSA (MST),[1],did not bind
same,GI50,"[2]; Homo sapiens, SK-N-AS, 48 hours, resazurin",≥ 20 µM
same,response of SK-N-F1 cell line,"[2]; SK-N-F1, 48 hours",essentially did not respond at all
same,growth of MYC reconstituted (HOmyc3) cells,[3],strongly inhibited growth
